The values below are quoted from earlier work in Sander's compilation of Henry's law constants.

A short description of the data set: Henry solubility constant Hcp at 298.15 K (mol/(m3 Pa)). The conditions noted are these: cited value.
The mark [1] stands for this setting: reference: Wania and Dugani (2003).
[2] abbreviates: reference: Murphy et al. (1983b).
Setting [3] is: reference: Burkholder et al. (2015).
The mark [4] stands for this setting: reference: Burkholder et al. (2019).
The mark [5] stands for this setting: reference: Sander et al. (2011).
Setting [6] is: reference: Fogg and Sangster (2003).

Consider `Brc1ccc(Oc2c(Br)cc(Br)cc2Br)c(Br)c1` [2,2',4,4',6-pentabromodiphenyl ether], for which the “Henry solubility constant Hcp” value under setting [1] was 2.6.

Consider `Brc1ccc(Oc2ccc(Br)cc2Br)c(Br)c1` [2,2',4,4'-tetrabromodiphenyl ether], for which the “Henry solubility constant Hcp” value under setting [1] was 0.9.

For the compound `Clc1ccc(Cl)c(-c2cc(Cl)ccc2Cl)c1` [2,2',5,5'-tetrachlorobiphenyl], the “Henry solubility constant Hcp” value under setting [2] is 0.038.

Take `Clc1ccccc1-c1ccccc1Cl` [2,2'-dichlorobiphenyl]: the “Henry solubility constant Hcp” value under setting [2] is 0.045.

For `OCC(F)(F)F` [2,2,2-trifluoroethanol], the “Henry solubility constant Hcp” value by setting is: under setting [3], 0.47; under setting [4], 0.47; under setting [5], 0.47.

For `CC(=O)OCC(F)(F)F` [2,2,2-trifluoroethyl ethanoate], the “Henry solubility constant Hcp” value was 0.0055 under setting [3], 0.0055 under setting [4] and 0.0055 under setting [5].

In the case of `O=COCC(F)(F)F` [2,2,2-trifluoroethyl methanoate], the “Henry solubility constant Hcp” value is, setting by setting: under setting [3], 0.0054; under setting [4], 0.0054; under setting [5], 0.0054.

In the case of `OCC(F)(F)C(F)(F)F` [2,2,3,3,3-pentafluoro-1-propanol], the “Henry solubility constant Hcp” value under setting [3] is 0.14, the “Henry solubility constant Hcp” value under setting [4] is 0.14 and the “Henry solubility constant Hcp” value under setting [5] is 0.14.

Take `OCC(F)(F)C(F)F` [2,2,3,3-tetrafluoro-1-propanol]: the “Henry solubility constant Hcp” value by setting is: under setting [3], 1.4; under setting [4], 1.4; under setting [5], 1.4.

`CC(C)CCC(C)(C)C` [2,2,5-trimethylhexane]: for the setting “reference: Brockbank (2013)”, the “Henry solubility constant Hcp” value was 1.9e-06.

With `COC(F)(F)C(Cl)Cl` [2,2-dichloro-1,1-difluoro-1-methoxyethane], under setting [6], the “Henry solubility constant Hcp” value is 0.0029.

Regarding `OCC(Cl)Cl` [2,2-dichloroethanol], the “Henry solubility constant Hcp” value runs as follows: under setting [3], 0.37; under setting [4], 0.37.

In the case of `OCC(F)F` [2,2-difluoroethanol], the “Henry solubility constant Hcp” value under setting [3] is 0.93 and the “Henry solubility constant Hcp” value under setting [4] was 0.93.

In the case of `CC(C)(C)CO` [2,2-dimethyl-1-propanol], the “Henry solubility constant Hcp” value (reference: Brockbank (2013)) was 0.3.

Regarding `CCC(C)(C)C` [2,2-dimethylbutane], the “Henry solubility constant Hcp” value (reference: Brockbank (2013)) was 5.7e-06.

With `CC(C)C(C)C(C)C` [2,3,4-trimethylpentane], the “Henry solubility constant Hcp” value (reference: Brockbank (2013)) was 3.3e-06.

On to `c1ccc2c(c1)Cc1ccccc1-2` [2,3-benzindene], for which the “Henry solubility constant Hcp” value (reference: Brockbank (2013)) is 0.13; the “Henry solubility constant Hcp” value under setting [6] was 0.11; the “Henry solubility constant Hcp” value (reference: Goldstein (1982)) was 0.084; the “Henry solubility constant Hcp” value (reference: HSDB (2015)) is 0.099; the “Henry solubility constant Hcp” value (reference: McCarty (1980)) was 0.047.

With `CC(O)C(C)O` (centres undefined) [2,3-butanediol], the “Henry solubility constant Hcp” value by setting is: under setting [3], 1100; under setting [4], 1100.

Consider `CC(C)C(C)C` [2,3-dimethylbutane], for which the “Henry solubility constant Hcp” value (reference: Brockbank (2013)) is 8e-06.

On to `Cc1cc2ccccc2cc1C` [2,3-dimethylnaphthalene], for which the “Henry solubility constant Hcp” value (reference: Meylan and Howard (1991)) was 0.011.

In the case of `Brc1ccc(Oc2ccc(Br)cc2Br)cc1` [2,4,4'-tribromodiphenyl ether], under setting [1], the “Henry solubility constant Hcp” value was 0.52.

For the compound `N#Cc1c(Cl)c(Cl)c(Cl)c(C#N)c1Cl` [2,4,5,6-tetrachloro-1,3-dicyanobenzene], the “Henry solubility constant Hcp” value (reference: MacBean (2012b)) was 39.

Regarding `Cc1ccc(Cl)cc1Cl` [2,4-dichloro-1-methylbenzene], the “Henry solubility constant Hcp” value (reference: Brockbank (2013)) is 0.0027.

On to `Oc1ccc(Cl)cc1Cl` [2,4-dichlorophenol], for which the “Henry solubility constant Hcp” value (reference: Goldstein (1982)) was 1.5.

Take `CC(C)C(=O)C(C)C` [2,4-dimethyl-3-pentanone]: the “Henry solubility constant Hcp” value (reference: Brockbank (2013)) was 0.023.

On to `Cc1ccc(N)c(C)c1` [2,4-dimethylbenzenamine], for which the “Henry solubility constant Hcp” value (reference: Brockbank (2013)) is 2.8.

Consider `CC(C)CC(C)C` [2,4-dimethylpentane], for which the “Henry solubility constant Hcp” value (reference: Brockbank (2013)) was 2.9e-06.
